The target in assay [1] is Plasminogen (Homo sapiens, UniProt P00747). Kind of assay: Inhibition of human plasmin using H-D-Val-Leu-Lys-AMC as substrate assessed as residual activity by fluorescence plate reader analysis.
Assay [2] addresses T1, Coagulation factor XII (Homo sapiens, UniProt P00748).
T1 sequence (P00748 whole entry): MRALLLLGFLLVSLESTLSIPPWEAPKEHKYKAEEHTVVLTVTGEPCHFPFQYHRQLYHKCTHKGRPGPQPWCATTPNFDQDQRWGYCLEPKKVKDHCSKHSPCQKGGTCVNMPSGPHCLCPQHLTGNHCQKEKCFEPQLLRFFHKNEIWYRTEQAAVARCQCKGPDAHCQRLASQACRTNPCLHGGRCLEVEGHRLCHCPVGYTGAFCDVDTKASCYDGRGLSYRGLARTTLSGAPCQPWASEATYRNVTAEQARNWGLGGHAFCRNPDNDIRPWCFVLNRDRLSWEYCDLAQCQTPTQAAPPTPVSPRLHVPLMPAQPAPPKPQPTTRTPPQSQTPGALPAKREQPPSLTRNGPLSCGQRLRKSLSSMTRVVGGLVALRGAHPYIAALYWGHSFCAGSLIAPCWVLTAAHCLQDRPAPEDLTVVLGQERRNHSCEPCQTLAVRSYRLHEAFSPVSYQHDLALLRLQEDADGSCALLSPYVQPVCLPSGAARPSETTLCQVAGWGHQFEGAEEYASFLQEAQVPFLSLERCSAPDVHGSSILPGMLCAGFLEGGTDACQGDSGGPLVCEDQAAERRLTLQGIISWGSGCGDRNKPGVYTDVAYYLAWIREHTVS
The assay can be described thus: Inhibition of human biotinylated beta factor 12a expressed in Escherichia coli TG1 using Z-Gly-Gly-Arg-AMC as substrate assessed as residual activity by fluorometric analysis.

For assay [3], the target named is Tissue-type plasminogen activator (Homo sapiens, UniProt P00750). Kind of assay: Inhibition of human tPA using Z-Gly-Gly-Arg-AMC as substrate assessed as residual activity by fluorometric analysis.
Sequence of Tissue-type plasminogen activator (P00750 whole entry): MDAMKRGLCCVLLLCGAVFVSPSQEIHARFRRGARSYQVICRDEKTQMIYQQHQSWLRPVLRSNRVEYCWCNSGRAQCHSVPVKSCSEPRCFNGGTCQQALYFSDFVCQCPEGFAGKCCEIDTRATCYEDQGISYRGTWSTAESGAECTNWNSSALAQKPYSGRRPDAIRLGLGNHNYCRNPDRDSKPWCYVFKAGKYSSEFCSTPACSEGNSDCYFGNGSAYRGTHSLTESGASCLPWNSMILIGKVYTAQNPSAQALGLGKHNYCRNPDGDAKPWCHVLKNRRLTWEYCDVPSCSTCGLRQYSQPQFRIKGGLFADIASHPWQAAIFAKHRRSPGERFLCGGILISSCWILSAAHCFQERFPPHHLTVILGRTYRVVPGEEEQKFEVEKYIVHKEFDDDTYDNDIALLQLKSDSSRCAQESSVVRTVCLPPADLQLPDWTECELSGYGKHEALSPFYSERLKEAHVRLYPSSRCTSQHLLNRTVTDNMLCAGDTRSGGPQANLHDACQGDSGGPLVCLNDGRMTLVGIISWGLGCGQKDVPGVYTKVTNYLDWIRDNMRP
The target of assay [4] is Coagulation factor XI (Homo sapiens, UniProt P03951). The assay can be described thus: Inhibition of human coagulation factor 11a using Boc-Phe-Ser-Arg-AMC as substrate assessed as residual activity by fluorometric analysis.
Sequence of Coagulation factor XI (P03951 19-387 limits assumed): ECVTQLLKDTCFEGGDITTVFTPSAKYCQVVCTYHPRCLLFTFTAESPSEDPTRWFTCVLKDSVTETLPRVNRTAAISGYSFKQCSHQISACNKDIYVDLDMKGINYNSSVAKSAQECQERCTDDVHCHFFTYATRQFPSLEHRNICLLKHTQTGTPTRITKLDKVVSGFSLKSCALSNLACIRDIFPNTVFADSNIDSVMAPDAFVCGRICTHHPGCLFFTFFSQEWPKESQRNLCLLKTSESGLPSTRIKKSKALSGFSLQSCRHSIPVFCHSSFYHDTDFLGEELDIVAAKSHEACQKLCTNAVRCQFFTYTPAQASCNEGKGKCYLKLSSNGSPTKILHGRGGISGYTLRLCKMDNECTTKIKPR
Sequence of Coagulation factor XI (P03951 388-625 limits assumed): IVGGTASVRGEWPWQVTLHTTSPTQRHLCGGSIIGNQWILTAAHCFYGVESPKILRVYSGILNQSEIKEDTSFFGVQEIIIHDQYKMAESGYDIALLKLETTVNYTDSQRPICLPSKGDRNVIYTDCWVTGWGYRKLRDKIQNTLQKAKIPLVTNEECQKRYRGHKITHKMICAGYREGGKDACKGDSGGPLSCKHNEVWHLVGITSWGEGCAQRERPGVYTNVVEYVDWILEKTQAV
Assay [5] addresses Plasma kallikrein (Homo sapiens, UniProt P03952). Kind of assay: Inhibition of human PK using Z-Phe-Arg-AMC as substrate assessed as residual activity by fluorometric analysis.
In assay [6] the target is Prothrombin (Homo sapiens, UniProt P00734). Kind of assay: Inhibition of human thrombin using Z-Gly-Gly-Arg-AMC as substrate assessed as residual activity by fluorescence plate reader analysis.
The target in assay [7] is Serine protease 1 (Homo sapiens, UniProt P07477). Kind of assay: Inhibition of human trypsin using Z-Gly-Gly-Arg-AMC as substrate assessed as residual activity by fluorescence plate reader analysis.
Sequence of Serine protease 1 (P07477 whole entry): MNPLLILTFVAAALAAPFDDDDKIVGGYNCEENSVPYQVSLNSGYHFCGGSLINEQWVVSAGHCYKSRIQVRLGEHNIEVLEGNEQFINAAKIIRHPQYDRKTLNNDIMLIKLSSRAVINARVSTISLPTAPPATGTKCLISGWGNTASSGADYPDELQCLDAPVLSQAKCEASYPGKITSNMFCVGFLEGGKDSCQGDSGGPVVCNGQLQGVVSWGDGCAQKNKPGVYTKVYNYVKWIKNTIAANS
Assay [8] addresses Urokinase-type plasminogen activator (Homo sapiens, UniProt P00749). Kind of assay: Inhibition of human uPA using Z-Gly-Gly-Arg-AMC as substrate assessed as residual activity by fluorometric analysis.
The target of assay [9] is T2, Coagulation factor XII (Homo sapiens) (UniProt P00748).
T2 sequence (whole entry): T1 sequence (P00748 whole entry)
The assay can be described thus: Inhibition of factor 12 in human plasma assessed as residual activity at 500 uM relative to control.

Assay [10] deals with T2, Coagulation factor XII (Homo sapiens). The assay can be described thus: Inhibition of factor 12 in human plasma assessed as residual activity at 10 uM relative to control.
Assay [11] has as its system Plasma. The assay can be described thus: Inhibition of intrinsic coagulation in human plasma assessed as increase in activated partial […] time. Format: functional, cell-free.
Assay [12] has as its target T2, Coagulation factor XII (Homo sapiens). Kind of assay: Inhibition of factor 12 in human plasma assessed as residual activity at 200 uM relative to control.
For assay [13] the target is unchanged. The assay can be described thus: Inhibition of factor 12 in human plasma assessed as decrease in residual activity relative to control.
The target is the same in assay [14]. Kind of assay: Inhibition of factor 12 in human plasma assessed as residual activity at 100 uM relative to control.
Assay [15] shares this target. Kind of assay: Inhibition of factor 12 in human plasma assessed as residual activity at 20 uM relative to control.
Assay [16] shares this target. Kind of assay: Inhibition of factor 12 in human plasma assessed as residual activity at 50 uM relative to control.

Results on 15 compounds are retold here after ChEMBL document CHEMBL2331474, “Development of a selective peptide macrocycle inhibitor of coagulation factor XII toward the generation of a safe antithrombotic therapy” (J Med Chem, 2013).

SMILES strings stand for the structures. Numbered stars: 1 amine (or outer) side, 2 acyl side, 3 side chain; on linkers, the order of the positions; unused ones are H or OH. Bridge positions count the residues as written; N and C are the ends. Peptide text beside a SMILES is read from it. TBMB = c1c(C[*:1])cc(C[*:3])cc1C[*:2]

In general, Ki refers to the equilibrium dissociation constant of an inhibitor or competing ligand from its target.

Sequence of Plasminogen (P00747 97-580 limits assumed): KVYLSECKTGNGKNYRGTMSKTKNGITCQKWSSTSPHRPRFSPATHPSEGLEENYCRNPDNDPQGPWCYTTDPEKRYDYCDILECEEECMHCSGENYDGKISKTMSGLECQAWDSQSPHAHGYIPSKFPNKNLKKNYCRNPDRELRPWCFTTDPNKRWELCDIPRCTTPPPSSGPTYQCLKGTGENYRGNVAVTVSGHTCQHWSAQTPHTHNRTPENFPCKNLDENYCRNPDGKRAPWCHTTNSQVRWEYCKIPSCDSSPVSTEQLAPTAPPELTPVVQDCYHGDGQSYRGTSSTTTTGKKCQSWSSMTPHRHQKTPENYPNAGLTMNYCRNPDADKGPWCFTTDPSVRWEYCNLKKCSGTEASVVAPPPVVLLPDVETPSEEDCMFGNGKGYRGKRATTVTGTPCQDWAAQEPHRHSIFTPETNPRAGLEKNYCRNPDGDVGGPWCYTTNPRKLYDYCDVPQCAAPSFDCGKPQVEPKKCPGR
Sequence of Plasminogen (P00747 581-810 limits assumed): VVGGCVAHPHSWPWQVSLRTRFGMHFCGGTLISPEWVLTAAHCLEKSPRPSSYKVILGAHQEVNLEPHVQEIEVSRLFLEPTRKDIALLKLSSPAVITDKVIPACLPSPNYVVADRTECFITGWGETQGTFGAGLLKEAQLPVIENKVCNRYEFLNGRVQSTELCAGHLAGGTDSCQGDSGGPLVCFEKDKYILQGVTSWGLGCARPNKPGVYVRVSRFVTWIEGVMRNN
Sequence of Plasma kallikrein (P03952 20-390 limits assumed): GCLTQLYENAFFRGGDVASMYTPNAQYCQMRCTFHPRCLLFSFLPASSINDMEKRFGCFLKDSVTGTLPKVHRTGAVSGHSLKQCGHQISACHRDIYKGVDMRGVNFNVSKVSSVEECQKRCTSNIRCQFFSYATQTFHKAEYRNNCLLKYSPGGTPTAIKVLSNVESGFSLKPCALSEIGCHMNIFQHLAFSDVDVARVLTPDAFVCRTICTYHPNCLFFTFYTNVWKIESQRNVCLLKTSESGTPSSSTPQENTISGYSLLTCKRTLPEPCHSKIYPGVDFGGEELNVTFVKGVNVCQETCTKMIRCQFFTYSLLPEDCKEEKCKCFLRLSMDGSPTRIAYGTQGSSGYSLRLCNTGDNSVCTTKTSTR
Sequence of Plasma kallikrein (P03952 391-638 limits assumed): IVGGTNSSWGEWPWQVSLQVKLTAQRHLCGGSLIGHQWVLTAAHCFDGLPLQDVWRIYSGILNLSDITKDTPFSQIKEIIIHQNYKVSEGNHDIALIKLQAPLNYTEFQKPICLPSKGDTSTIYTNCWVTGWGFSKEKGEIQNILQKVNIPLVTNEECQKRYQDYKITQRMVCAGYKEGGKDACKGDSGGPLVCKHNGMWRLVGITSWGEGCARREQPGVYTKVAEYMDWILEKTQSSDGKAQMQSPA

For `CC(C)C[C@H](NC(=O)[C@H](CS)NC(=O)[C@H](Cc1ccc(O)cc1)NC(=O)[C@@H](NC(=O)[C@H](CCC(N)=O)NC(=O)[C@@H]1CCCN1C(=O)[C@H](CS)NC(=O)[C@@H]1CCCN1C(=O)[C@H](CCCNC(=N)N)NC(=O)[C@H](C)NC(=O)[C@H](CC(=O)O)NC(=O)[C@H](CS)NC(=O)[C@H](C)N)[C@@H](C)O)C(=O)O` (H-ACDARPCPQTYCL-OH), the Ki in [1] is greater than 120 µM; in assay [2], 20.5 µM.
For the compound `CC(C)C[C@H](NC(=O)[C@@H]1CCCN1C(=O)[C@H](CS)NC(=O)[C@@H]1CCCN1C(=O)[C@H](CCCN=C(N)N)NC(=O)[C@H](C)NC(=O)[C@H](C)NC(=O)[C@H](CS)NC(=O)CN)C(=O)N[C@H](C(=O)N[C@@H](C)C(=O)N[C@@H](CS)C(=O)N[C@@H](Cc1c[nH]c2ccccc12)C(=O)O)[C@@H](C)O` (H-GCAARPCPLTACW-OH), the results for the Ki in [1] and in [2] were greater than 120 µM and 33.5 µM, respectively.
Regarding `C[C@@H]1NC(=O)[C@@H]2CCCN2C(=O)[C@@H]2CCCN2C(=O)[C@@H]2CSCc3cc(cc(c3)CSC[C@@H](C(=O)NCC(=O)O)NC(=O)[C@H](Cc3ccc(O)cc3)NC1=O)CSC[C@H](NC(=O)CN)C(=O)NCC(=O)NCC(=O)N[C@@H](CCCN=C(N)N)C(=O)N1CCC[C@H]1C(=O)N2` (H-GCGGRPCPPAYCG-OH; linker 2-7-12 via TBMB), the Ki in assay [3] is greater than 120 µM; in assay [1] it was greater than 120 µM; in assay [4], greater than 120 µM; in assay [5] it was greater than 120 µM; in assay [2], 1.2 µM; in assay [6], greater than 120 µM. Also, the inhibition constant (Ki) in assay [7] and in assay [8] was greater than 120 µM each time.
For `C[C@@H]1NC(=O)[C@@H]2CCCN2C(=O)[C@@H]2CCCN2C(=O)[C@@H]2CSCc3cc(cc(c3)CSC[C@@H](C(=O)NCC(=O)O)NC(=O)[C@H](Cc3ccc(O)cc3)NC1=O)CSC[C@H](NC(=O)CN)C(=O)NCC(=O)NCC(=O)N[C@@H](CCCNC(=N)N)C(=O)N1CCC[C@H]1C(=O)N2` (H-GCGGRPCPPAYCG-OH; linker 2-7-12 via TBMB), the Activity in assay [9] is 20%; in [10], 95%; in [12], 42%; in assay [14], 51%; in [15], 89%; in [16], 70%. Further, the inhibition entry in assay [11] and in [13] was “Dose-dependent effect” throughout.
Turning to `CC(C)C[C@H](NC(=O)[C@@H]1CCCN1C(=O)[C@H](CS)NC(=O)[C@@H]1CCCN1C(=O)[C@H](CCCNC(=N)N)NC(=O)CNC(=O)[C@H](Cc1cnc[nH]1)NC(=O)[C@H](CS)NC(=O)CN)C(=O)N[C@@H](CCC(N)=O)C(=O)N[C@@H](Cc1ccc(O)cc1)C(=O)N[C@@H](CS)C(=O)N[C@@H](CCCCN)C(=O)O` (H-GCHGRPCPLQYCK-OH), the figures for the Ki in assay [1] and in assay [2] were 14.2 µM and 11.2 µM, respectively.
For `CSCC[C@H](NC(=O)[C@@H]1CCCN1C(=O)[C@H](CS)NC(=O)[C@@H]1CCCN1C(=O)[C@H](CCCN=C(N)N)NC(=O)CNC(=O)[C@H](CC(C)C)NC(=O)[C@H](CS)NC(=O)CN)C(=O)N[C@@H](C)C(=O)N[C@@H](Cc1ccc(O)cc1)C(=O)N[C@@H](CS)C(=O)N[C@@H](CO)C(=O)O` (H-GCLGRPCPMAYCS-OH), in that order: greater than 120 µM and 5 µM.
Turning to `CSCC[C@H](NC(=O)[C@H](CS)NC(=O)CN)C(=O)NCC(=O)N[C@@H](CCCNC(=N)N)C(=O)N1CCC[C@H]1C(=O)N[C@@H](CS)C(=O)N1CCC[C@H]1C(=O)N[C@H](C(=O)N[C@@H](CO)C(=O)N[C@@H](Cc1ccc(O)cc1)C(=O)N[C@@H](CS)C(=O)N[C@@H](Cc1ccccc1)C(=O)O)C(C)C` (H-GCMGRPCPVSYCF-OH), the Ki in assay [1] was greater than 120 µM; in assay [2], 5 µM.
Take `CC(C)C[C@H](NC(=O)[C@H](C)NC(=O)[C@H](CC(C)C)NC(=O)[C@@H]1CCCN1C(=O)[C@H](CS)NC(=O)[C@@H]1CCCN1C(=O)[C@H](CCCNC(=N)N)NC(=O)[C@H](C)NC(=O)[C@H](Cc1c[nH]c2ccccc12)NC(=O)[C@H](CS)NC(=O)CN)C(=O)N[C@@H](CS)C(=O)N[C@@H](CCC(N)=O)C(=O)O` (H-GCWARPCPLALCQ-OH): the Ki was greater than 120 µM in [1] and 10.2 µM in [2].
In the case of `C[C@H](NC(=O)[C@H](CC(N)=O)NC(=O)[C@H](CS)NC(=O)[C@@H](N)CCC(N)=O)C(=O)N[C@@H](CCCNC(=N)N)C(=O)N1CCC[C@H]1C(=O)N[C@@H](CS)C(=O)N1CCC[C@H]1C(=O)N[C@@H](CO)C(=O)N[C@@H](CO)C(=O)N[C@@H](Cc1ccc(O)cc1)C(=O)N[C@@H](CS)C(=O)N[C@@H](CCCNC(=N)N)C(=O)O` (H-QCNARPCPSSYCR-OH), the Ki in assay [1] amounted to 118 µM; in assay [2], 4.7 µM.
On to `C[C@@H]1NC(=O)[C@@H]2CCCN2C(=O)[C@@H]2CCCN2C(=O)[C@@H]2CSCc3cc(cc(c3)CSC[C@H](NC(=O)[C@@H](N)CO)C(=O)NCC(=O)NCC(=O)N[C@@H](CCCNC(=N)N)C(=O)N3CCC[C@H]3C(=O)N2)CSC[C@@H](C(=O)NCC(N)=O)NC(=O)[C@H](Cc2ccc(O)cc2)NC1=O` (H-SCGGRPCPPAYCG-NH2; linker 2-7-12 via TBMB), for which, in assay [1], the Ki was 4.3 µM.
As to `C[C@H](NC(=O)[C@@H]1CCCN1C(=O)[C@@H]1CCCN1C(=O)[C@H](CS)NC(=O)[C@@H]1CCCN1C(=O)[C@H](CCCN=C(N)N)NC(=O)CNC(=O)CNC(=O)[C@H](CS)NC(=O)[C@@H](N)CO)C(=O)N[C@@H](Cc1ccc(O)cc1)C(=O)N[C@@H](CS)C(=O)N[C@@H](CCCCN)C(=O)O` (H-SCGGRPCPPAYCK-OH), the Ki in assay [1] came to 8.3 µM; in [2] it was 3.1 µM.
On to `C[C@@H]1NC(=O)[C@@H]2CCCN2C(=O)[C@@H]2CCCN2C(=O)[C@@H]2CSCc3cc(cc(c3)CSC[C@H](NC(=O)[C@@H](N)CO)C(=O)NCC(=O)NCC(=O)N[C@@H](CCCNC(=N)N)C(=O)N3CCC[C@H]3C(=O)N2)CSC[C@@H](C(=O)N[C@@H](CCCCN)C(=O)O)NC(=O)[C@H](Cc2ccc(O)cc2)NC1=O` (H-SCGGRPCPPAYCK-OH; linker 2-7-12 via TBMB), for which the Ki in [3] is greater than 120 µM; in assay [1], 8.3 µM; in assay [4], greater than 120 µM; in assay [5], greater than 120 µM; in assay [2] it was 3.1 µM; in assay [6], greater than 120 µM. The Ki in assay [7] and in assay [8] was greater than 120 µM throughout.
With `CC(C)C[C@H](NC(=O)[C@H](CCCNC(=N)N)NC(=O)[C@H](Cc1ccccc1)NC(=O)[C@H](C)NC(=O)[C@H](CS)NC(=O)CNC(=O)[C@H](CCC(N)=O)NC(=O)[C@@H](NC(=O)[C@@H](NC(=O)[C@H](CS)NC(=O)[C@@H](N)[C@@H](C)O)[C@@H](C)O)[C@@H](C)O)C(=O)N[C@@H](CS)C(=O)N[C@@H](CO)C(=O)O` (H-TCTTQGCAFRLCS-OH), the Ki in [2] is greater than 75 µM.
Regarding `CC(C)[C@H](N)C(=O)N[C@@H](CS)C(=O)N[C@H](C(=O)N[C@@H](CCC(N)=O)C(=O)N[C@@H](CCCCN)C(=O)N[C@@H](Cc1ccccc1)C(=O)N[C@@H](CS)C(=O)N[C@@H](Cc1c[nH]c2ccccc12)C(=O)N[C@@H](CCCNC(=N)N)C(=O)NCC(=O)N[C@@H](Cc1c[nH]c2ccccc12)C(=O)N[C@@H](CS)C(=O)N1CCC[C@H]1C(=O)O)C(C)C` (H-VCVQKFCWRGWCP-OH), in [2], the Ki is greater than 75 µM.
As to `N=C(N)NCCC[C@H](NC(=O)CNC(=O)[C@H](CO)NC(=O)[C@H](CS)NC(=O)[C@@H](N)CO)C(=O)N[C@@H](CCCNC(=N)N)C(=O)N[C@@H](CS)C(=O)N1CCC[C@H]1C(=O)N1CCC[C@H]1C(=O)N[C@@H](CO)C(=O)N[C@@H](Cc1ccc(O)cc1)C(=O)N[C@@H](CS)C(=O)N[C@@H](CCCCN)C(=O)O` [SCSGRRCPPSYCK] (H-SCSGRRCPPSYCK-OH), the Ki in [1] turned out to be 3.3 µM; in assay [2], 7.8 µM.
